US12565680B2, “Cancer neoantigens and their utilities in cancer vaccines and TCR-based cancer immunotherapy” (THE METHODIST HOSPITAL SYSTEM, priority 2018, dated 2026)

Legend:
T-cell clones of 135TIL = experiment: IFN-γ ELISA with tumor-reactive T-cell clones of 135TIL; assay type: cell-based, human
Description: Thus, immunogenic antigens can be generated from various sources or mechanisms [such as alternative ORFs, noncoding regions (3′ and 5′ UTRs, introns, noncoding RNA)]. […] All other tumor-reactive CD4^+ T-cell clones and CD8^+ T-cell clones recognized the mutation-derived neoantigens. […] To identify these two antigens recognized by these two CD4^+ T-cell clones, an Ii-fusion cDNA library derived from 135 mel tumor cells was constructed using experimental procedures. The Ii-fusion cDNA library pools (approximately 100 cDNA clones per pool) were transfected into 293IMDR3/DP4 or 293IMDR4/DP4 cells, followed by co-culturing with CD4^+ T-cell clones (135-1C1 or 135-1E1). After 2×10^5 cDNA clones, positive cDNA library pools that stimulate two T-cell clones, respectively, were identified based on IFN-γ release by ELISA (FIG. 6B). The positive pools were then transformed into Stbl3™ Escherichia coli, and single bacteria colonies were picked for plasmid DNA isolation. The screening assays were repeated in the same APCs transfected with the single cDNA-containing plasmids, and identified three clones that were able to stimulate 135-1C1 T cells, and two clones that reacted with 135-1E1 T cells (FIG. 6C). […] The 135-1E1 T cell-reactive cDNA clones encoded the product translated from an alternative reading frame of CTAG2 (LAGE1b) (FIG. 6C and FIG. 7A). […] LAGE1 is a cancer-testis antigen, with over 80% amino acid sequence identical to NY-ESO-1 protein, which is the most immunogenic tumor antigen identified to date. To define the T cell epitopes, wee generated a series of deletions and truncations of 3′ UTR region of ADIPOR2 gene, and narrowed down T cell epitope to a 26 aa peptide-coding sequence that stimulate 135-1C1 T cell response (FIG. 7D). Using similar approach, T cell epitopes were narrowed down to a 69 aa peptide-coding sequence of the LAGE1b alternative ORF2 for 135-1E1 T-cell recognition (FIG. 7E).
Using systemic and multiple approaches, 8 cancer neoantigens were identified in 135 mel and 7 neoantigens in 136 mel. To understand the potential mechanisms that restrain the number of neoantigens that could induce T cell response, it was asked whether these neoantigens were equally recognized by T cells.
T-cell cloning and expansion were performed. Briefly, T-cell clones from 135TILs were generated by a limited dilution (0.3 cell/well) in 96-well plates. Allogeneic PBMCs from normal donors were irradiated (60 Gy) and then seeded as feeder cells (7×10^4/well) in TCM containing 35 ng/ml OKT3 (anti-hCD3 antibody) (R&D Systems) and 35 ng/ml anti-hCD28 antibody (R&D Systems). On day 1, recombinant IL-2 was added to the final concentration of 300 IU/ml. On day 5, half of the culture medium was replaced with fresh TCM containing recombinant IL-2, and then the medium was changed every other day or when the medium color turned yellow. On day 14, T-cell clones were harvested, counted, tested for tumor reactivity. Tumor reactive T-cell clones were further expanded.
(§1) 96-well tissue culture plates were coated with phosphate-buffered saline (PBS, GenDEPOT) containing 50 μg/ml poly-L-lysine (Millipore Sigma) at 37° C. 10 min later, the plates were rinsed twice with PBS. Tumor cells or 293-APCs were seeded at 5×10^4/well in the 96-well plate and cultured at 37° C., 5% CO2 for at least 4 h. For plasmid transfection, 250 ng of plasmid DNA were transfected into 293-APCs per well with 0.5 μl of Lipofectamine 2000 (Thermo Fisher Scientific) according to the manufacturer's instructions and incubated at 37° C., in 5% CO2 overnight. For peptide presentation, synthesized peptides (GeneScript) were added to each well at different final concentrations from 10^2 to 10^−4 μM and incubated at 37° C., 5% CO2. The cells transfected with plasmids or pulsed with peptides were washed with TCM twice, and then cocultured with T cells (1×10^5/well). After overnight culture, 50 μl of supernatant was collected for measuring cytokine release with an ELISA assay. […]

135TIL [1] = experiment: IFN-γ ELISA with bulk 135TIL (IVT-RNA electroporated 135EBV-B cells; peptide titration and truncation); assay type: cell-based, human; conditions: serially diluted peptides
Procedure: Due to low transfection efficiency of EBV-B cells, in vitro transcribed (IVT) RNA of 24 TMGs were generated and then electroporated them into 135EBV-B cells, followed by adding 135TIL cells for antigen recognition based on cytokine release assay.
as §1, with “(1×10^5/well).” for “(1×10^5/well). After overnight culture, 50 μl of supernatant was collected for measuring cytokine release with an ELISA assay.”
96-well microplate (Greiner Bio-one) was coated with 50 μl of PBS containing anti-human IFN-γ (Thermo Fisher Scientific, primary antibody, 1 μg/ml) per well and incubated at 4° C. overnight. […] The plate was read at OD450 nm. The concentration of IFN-γ was calculated by standard reading. […]

135TIL [2] = experiment: Intracellular staining of IFN-γ after neoantigen peptide stimulation, 135TIL; assay type: cell-based, human
Procedure: T cells were stimulated by various in vitro methods, such as tumor cells, peptides or DNA encoding neoantigens, etc. and induced to release cytokines. Stimulated T cells were resuspended in 100 μl of Cytofix/Cytoperm solution (BD Biosciences) per well for microwell plates (or 250 μl for tubes) and incubated for 20 min at 4° C. for cell fixation. Fixed cells were permeabilized by washing twice in 1× Perm/Wash buffer (BD Biosciences). Then the fixed/permeabilized cells were thoroughly resuspended in 50 μl of 1× Perm/Wash buffer containing 1 μl of phycoerythrin (PE)-conjugated IFN-γ antibody (Thermo Fisher Scientific) and incubate at 4° C. for 30 min in the dark. After that the cells were washed twice with 1× Perm/Wash buffer and ready for flow cytometric analysis.

135TIL [3] = experiment: TCR β CDR3 repertoire analysis; parameters: species or system human; conditions: TCRβ CDR3 profiling
Description: To address this issue, PCDHB16 neoantigen-specific CD4^+ T cells were isolated by FACS sorting of PCDHB16-neoantigen T cells from freshly generated bulk T cells after stimulated PCDHB16 neoepitope peptide-pulsed 135EBV-B cells. Using the similar approach, MPG-specific CD8+ T cells were also purified from freshly generated bulk T cells after stimulated MPG neoepitope peptide-pulsed 135EBV-B cells. Genomic DNAs were isolated from the two purified neoantigen-specific T cell populations, as well as the parental bulk T cells, and used as templates for TCR β-chain CDR3 repertoire amplification. […] After the amplicons (from PCDHB16-, MPG-specific T cells and bulk 135TIL) were subjected to deep-sequenced via next-generation sequencing (reads>100,000 per sample), followed by bioinformatic analysis and TCR repertoire alignment. […] The relative TCR sequence frequencies that were identical to those in PCDHB16-specific T cells and MPG-specific T cells were determined in total 135TIL cell population (FIG. 10F). […]
Cytokine Secretion Assay-Detection Kit (MACS Miltenyi Biotec) was used in cell-surface IFN-γ staining based on a commercial protocol. […] Finally cells were washed with cold buffer and ready for flow cytometric analysis. […]

| Sequence | recognition of antigen peptides by specific T-cell clones (T-cell clones of 135TIL; peptide titration, 135-1C1 (ADIPOR2), 135-1E1 (LAGE1b)) | recognition of titrated peptides by 135TIL (IFN-γ ELISA) (135TIL [1]) | percentage of CD8^+ tumor-reactive T-cell clones recognizing the neoantigen (T-cell clones of 135TIL; 40 clones) [%] | number of CD8^+ tumor-reactive T-cell clones recognizing the neoantigen (T-cell clones of 135TIL; of 40 clones) | share of tumor-reactive CD8^+ T cells specific for the neoantigen (135TIL [2]) [%] | CD8^+ T cells recognizing the neoantigen in the total T cell population (135TIL [2]; intracellular cytokine staining) [%] | neoantigen-specific TCRs in the total 135TIL TCRs (135TIL [3]) [%] |
| --- | --- | --- | --- | --- | --- | --- | --- |
| MKLTSLMCNPVKSPFFGCVCGHVPISMCVSTCSSLPTASCALDLTVLAENSHQVGA [ADIPOR2, 56 aa reading frame in the 3′UTR of gene ADIPOR2] | strongly recognized | little or no activity |  |  |  |  |  |
| YGMYFCMNISSQEDGACVLLRALEP [MPG, immunodominant MHC-I neoantigen of patient #135] |  |  | 67.5 | 27 | 65 | 12.3 | 25.5 |
